Reference: patent publication US20220105058A1, “USE OF 3-O-SULFAMATE-16,16-DIMETHYL-D-HOMOEQUILENIN TO TREAT ONCOLOGICAL DISEASES” (priority 2018, published 2022)
Where “and” joins values, the source holds several entries; their conditions need not be identical. Equal values may be shown once. Entries after “also recorded” stand apart in the source; their conditions may differ. Read-outs that look alike come from different tables or passages of the source. Marks after values point to notes of the source that are not given here.

What was measured:
[1] = body weight and tolerability during the antitumor study; settings: for average body weight of mice (M): Tamoxifen 4.0 mg/kg i.g. daily; for Body weight: Tamoxifen 4 mg/kg
Description: The study medicament was administered i.g. using a metal atraumatic gavage (with the procedure corresponds to the oral route of administration in clinical settings). The medicament was administered in a single daily dose (20 mg/kg of body weight) and 5-fold daily dose of 100 mg/kg of body weight. Ex tempore solutions of the medicament for administration were prepared in olive oil (refined olive oil supplemented with unrefined extra virgin olive oil available under Global Village “Clasico” trademark, lot L:183351116, expiry date 26 Apr. 2020, BAIEO, Spain). The administered volume was 0.1 ml per 10 g of a mouse body weight (0.2 ml of a ready-to-use formulation for a mouse of 20 g). The medicament administration was started 24 hours after the randomization. The duration of the administration course was 27-28 days.
This dose corresponds to a human daily dose of 20 mg/kg.
The evaluation criteria included the clinical observation data, animals body weights, time of death (if applicable), tumor growth over time, pathomorphological examination data (verification of a neoplasm during autopsy, assessment of toxic effects by macroscopic presentation of changes in the internal organs).
The animals body weights were recorded before the first administration of the medicaments and then twice per week using a verified high-speed electronic laboratory balance Ohaus Scout Pro (USA) with a maximum load of 2000 g and a measurement step of 0.1 g.

[2] = tested on: Breast tumors (BT) in female FBV/N mice transgenic for HER-2/neu; assay: antitumor activity in mice with HER-2/neu breast tumors; assay type: in vivo, FVB mice transgenic for HER-2/neu; settings: Tamoxifen 4 mg/kg
From the text: The age of animals at the beginning of the study was 21-41 weeks and weight was 25-30 g.
The control groups were given the olive oil (placebo).
TGI=(Vctrl−Vexp)/Vctrl×100(%),

[3] = tested on: subcutaneous xenografts of human TNBC-Kad breast cancer
Description: (§1) A comparative study of the medicaments in vivo was performed in female Balb/c nude mice with subcutaneously (s.c.) transplanted tumor cells. The experiment lasted for 29 days after the medicament administration for the first time (the administration of the medicaments was started on Day 5 after the tumor strain transplantation).
(§2) The medicament and the reference drug were administered intragastrically multiple times at doses of 30 mg/kg and 10 mg/kg daily for 21 days.
(§3) The placebo group was given 1% starch solution intragastrically in equivalent volumes and in the same regime. Tumor nodes were measured 2 times per week. […] Once the treatment was completed, the last tumor measurement was carried out, and animals were weighed and euthanized.
(§4) The animals were weighed on the first day of the experiment, and then 2 times per week throughout the experiment according to the research protocol.
(§5) A tumor node was measured after tumor transplantation 2 times per week throughout the experiment. The tumor node volume was determined by the formula:
(§6) V=π/6*L*W*H, where L, W, H are the linear size dimensions of the tumor.
(§7) Determination of Antitumor Activity
(§8) Tumor growth inhibition index (TGI) was used as a criterion for the study of the medicament efficacy and calculated by the formula as follows:
(§9) TGI (%)=|Vctrl−Vexp|/Vctrl*100
(§10) where Vctrl and Vexp are the average tumor volume (mm^3) in the control and in the experimental groups, respectively.
(§11) After the course of the treatment, the animals were euthanized by the cervical dislocation of cervical vertebrae.
(§12) The statistical data processing was conducted using SPSS 21 package (license No. 20130626-3). Descriptive statistics in the study includes the following: arithmetic average, standard deviation (SD), standard mean error (SE), median, quartiles, interquartile range. To compare quantitative characteristics in the groups, the Mann-Whitney-Wilcoxon test was used without corrections for multiple comparisons. The results were considered statistically significant at p<0.05.

[4] = tested on: subcutaneous xenografts of human SKBR-3 breast cancer
Description: as §1, §2, §3, §4, §5, §6, §7, §8, §9, §10, §11, §12

Compound: CC/C(=C(\c1ccccc1)c1ccc(OCCN(C)C)cc1)c1ccccc1 [Tamoxifen]
- average body weight of mice (M) ([1]; Day 0): 31.0 g
- average body weight of mice (M) ([1]; Day 7): 32.0 g
- average body weight of mice (M) ([1]; Day 14): 32.9 g
- average body weight of mice (M) ([1]; Day 21): 32.8 g
- average body weight of mice (M) ([1]; Day 28): 34.2 g
- Body weight ([1]; Day 28, All mice): 34.2 ± 1.4 g
- Body weight ([1]; Day 28, estrus (E-9)): 34.2 ± 1.4 g
- Average volume of new tumors at the end of observation period (M) [2]: 0.20 cm^3
- average total volume of tumors, % changes from baseline ([2]; 28 days): 338%
- average volume of tumors, % changes from baseline ([2]; 28 days): 338%
- TGI (average total tumor volume) ([2]; Day 0): 44%
- TGI (average tumor volume) ([2]; Day 0): 24%
- average total volume of tumors in mice (M) ([2]; Day 0): 1.26 cm^3
- average volume of tumors (M) ([2]; Day 0): 0.29 cm^3
- TGI (average total tumor volume) ([2]; Day 7): 33%
- TGI (average tumor volume) ([2]; Day 7): 8%
- average total volume of tumors in mice (M) ([2]; Day 7): 2.01 cm^3
- average volume of tumors (M) ([2]; Day 7): 0.46 cm^3
- TGI (average total tumor volume) ([2]; Day 14): 32%
- TGI (average tumor volume) ([2]; Day 14): 7%
- average total volume of tumors in mice (M) ([2]; Day 14): 2.84 cm^3
- average volume of tumors (M) ([2]; Day 14): 0.65 cm^3
- TGI (average total tumor volume) ([2]; Day 21): 36%
- TGI (average tumor volume) ([2]; Day 21): 12%
- average total volume of tumors in mice (M) ([2]; Day 21): 3.23 cm^3
- average volume of tumors (M) ([2]; Day 21): 0.75 cm^3
- TGI (average total tumor volume) ([2]; Day 28): 5%
- TGI (average tumor volume) ([2]; Day 28): −31%
- average total volume of tumors in mice (M) ([2]; Day 28): 5.52 cm^3
- average volume of tumors (M) ([2]; Day 28): 1.27* cm^3
- Total number of new tumors ([2]; end of experiment): 32
- frequency of tumor stabilizations ([2]; end of observation): 3%
- tumor growth inhibition over the entire observation period ([3]; Tamoxifen 10 mg/kg): no tumor growth inhibition was detected; also recorded: is not effective
- average tumor volume (M ± m) ([3]; Tamoxifen 10 mg/kg, Day 0): 2.3±0.8 mm^3 and 2.33 ± 0.76 mm^3
- average tumor volume (M ± m) ([3]; Tamoxifen 10 mg/kg, Day 3): 25.61 ± 5.56 mm^3
- TNBC_Kad growth inhibition, TGI ([3]; Tamoxifen 10 mg/kg, Day 7): 0.5%
- average tumor volume (M ± m) ([3]; Tamoxifen 10 mg/kg, Day 7): 79.17 ± 18.80 mm^3
- TNBC_Kad growth inhibition, TGI ([3]; Tamoxifen 10 mg/kg, Day 10): −20.7%
- average tumor volume (M ± m) ([3]; Tamoxifen 10 mg/kg, Day 10): 122.09 ± 27.84 mm^3
- TNBC_Kad growth inhibition, TGI ([3]; Tamoxifen 10 mg/kg, Day 14): −18.4%
- average tumor volume (M ± m) ([3]; Tamoxifen 10 mg/kg, Day 14): 193.24 ± 54.10 mm^3
- TNBC_Kad growth inhibition, TGI ([3]; Tamoxifen 10 mg/kg, Day 17): −22.6%
- average tumor volume (M ± m) ([3]; Tamoxifen 10 mg/kg, Day 17): 237.32 ± 77.07 mm^3
- TNBC_Kad growth inhibition, TGI ([3]; Tamoxifen 10 mg/kg, Day 21): −7.9%
- average tumor volume (M ± m) ([3]; Tamoxifen 10 mg/kg, Day 21): 322.76 ± 88.25 mm^3
- average tumor volume (M ± m) ([3]; Tamoxifen 30 mg/kg, Day 0): 4.1±1.2 mm^3 and 4.14 ± 1.22 mm^3
- average tumor volume (M ± m) ([3]; Tamoxifen 30 mg/kg, Day 3): 17.12 ± 4.12 mm^3
- average tumor volume (M ± m) ([3]; Tamoxifen 30 mg/kg, Day 7): 44.1±8.8 mm^3 and 44.13 ± 8.81 mm^3
- TNBC_Kad growth inhibition, TGI ([3]; Tamoxifen 30 mg/kg, Day 10): 39.4%
- average tumor volume (M ± m) ([3]; Tamoxifen 30 mg/kg, Day 10): 61.37 ± 12.03 mm^3
- TNBC_Kad growth inhibition, TGI ([3]; Tamoxifen 30 mg/kg, Day 14): 26.8%
- average tumor volume (M ± m) ([3]; Tamoxifen 30 mg/kg, Day 14): 119.53 ± 18.54 mm^3
- TNBC_Kad growth inhibition, TGI ([3]; Tamoxifen 30 mg/kg, Day 17): 26.7%
- average tumor volume (M ± m) ([3]; Tamoxifen 30 mg/kg, Day 17): 141.85 ± 35.07 mm^3
- TNBC_Kad growth inhibition, TGI ([3]; Tamoxifen 30 mg/kg, Day 21): 33.3%
- average tumor volume (M ± m) ([3]; Tamoxifen 30 mg/kg, Day 21): 199.54 ± 43.55 mm^3
- average tumor volume (M ± m) ([4]; Tamoxifen 10 mg/kg, Day 0): 0.7±0.1 mm^3
- average tumor volume (M ± m) ([4]; Tamoxifen 10 mg/kg, Day 3): 1.0 ± 0.3 mm^3
- SKBR-3 growth inhibition, TGI ([4]; Tamoxifen 10 mg/kg, Day 7): 63.9%
- average tumor volume (M ± m) ([4]; Tamoxifen 10 mg/kg, Day 7): 7.2±3.9 mm^3
- SKBR-3 growth inhibition, TGI ([4]; Tamoxifen 10 mg/kg, Day 10): 56.9%
- average tumor volume (M ± m) ([4]; Tamoxifen 10 mg/kg, Day 10): 33.4±16.1 mm^3
- SKBR-3 growth inhibition, TGI ([4]; Tamoxifen 10 mg/kg, Day 14): 60.6%
- average tumor volume (M ± m) ([4]; Tamoxifen 10 mg/kg, Day 14): 47.5±16.8 mm^3
- SKBR-3 growth inhibition, TGI ([4]; Tamoxifen 10 mg/kg, Day 17): 68.9%
- average tumor volume (M ± m) ([4]; Tamoxifen 10 mg/kg, Day 17): 58.0±18.2 mm^3
- SKBR-3 growth inhibition, TGI ([4]; Tamoxifen 10 mg/kg, Day 21): 45.4%
- average tumor volume (M ± m) ([4]; Tamoxifen 10 mg/kg, Day 21): 145.5 ± 70.9 mm^3
- SKBR-3 growth inhibition, TGI ([4]; Tamoxifen 10 mg/kg, Day 24): 9.5%
- average tumor volume (M ± m) ([4]; Tamoxifen 10 mg/kg, Day 24): 211.1 ± 94.0 mm^3
- average tumor volume (M ± m) ([4]; Tamoxifen 30 mg/kg, Day 0): 0.9±0.2 mm^3
- average tumor volume (M ± m) ([4]; Tamoxifen 30 mg/kg, Day 3): 2.0 ± 0.4 mm^3
- SKBR-3 growth inhibition, TGI ([4]; Tamoxifen 30 mg/kg, Day 7): 6.2%
- average tumor volume (M ± m) ([4]; Tamoxifen 30 mg/kg, Day 7): 18.8±7.4 mm^3
- SKBR-3 growth inhibition, TGI ([4]; Tamoxifen 30 mg/kg, Day 10): 12.6%
- average tumor volume (M ± m) ([4]; Tamoxifen 30 mg/kg, Day 10): 67.6 ± 21.1 mm^3
- SKBR-3 growth inhibition, TGI ([4]; Tamoxifen 30 mg/kg, Day 14): 2.9%
- average tumor volume (M ± m) ([4]; Tamoxifen 30 mg/kg, Day 14): 117.1 ± 41.7 mm^3
- SKBR-3 growth inhibition, TGI ([4]; Tamoxifen 30 mg/kg, Day 17): −17.1%
- average tumor volume (M ± m) ([4]; Tamoxifen 30 mg/kg, Day 17): 218.3 ± 63.6 mm^3
- SKBR-3 growth inhibition, TGI ([4]; Tamoxifen 30 mg/kg, Day 21): −44.2% and −44.4%
- average tumor volume (M ± m) ([4]; Tamoxifen 30 mg/kg, Day 21): 384.8±103.2 mm^3
- SKBR-3 growth inhibition, TGI ([4]; Tamoxifen 30 mg/kg, Day 24): −68.1%
- average tumor volume (M ± m) ([4]; Tamoxifen 30 mg/kg, Day 24): 392.1 mm^3
- antitumor efficacy ([4]; pilot experiment, Tamoxifen 10 mg/kg): not effective
- effect on tumor growth ([4]; pilot experiment, Tamoxifen 10 mg/kg, Days 10 to 17): tumor growth stimulation was recorded
